We go through one sequence from US20080119412A1, “Polypeptides for Modulating Binding of Trp Channel Proteins and Trp- Associated Proteins” (NoNO Inc., priority 2003, published 2008).

This experiment concerns neurons. The experiment in a line: Neuronal survival 20 h after NMDA challenge (FIG. 14). The class given is cell-based. Particulars: 20 h after 1 h NMDA challenge; peptide applied immediately after the NMDA challenge. As for the experimental part:
The sequence of Tat-9cTRPM7 is: [[…] or [[…]-[…]], whereby the first 11 residues correspond to the cell membrane transduction domain of the human immunodeficiency virus type 1 (HIV-1) Tat protein and the last 9 residues correspond to the last 9 amino acids of the C-terminus of human TRPM7 (accession Q96QT4). […] (A) Neuronal survival at 20 h in the indicated concentrations of Tat-9cTRPM7 in the absence of excitotoxic challenge. (B) Neuronal survival 20 h after challenging the cultures for 1 h with the indicated concentration of NMDA. Tat-9cTRPM7 was applied immediately after the NMDA challenge.
The sequence of Tat-9cTRPM7 is: [[…]-[…]; SEQ ID NO:258], whereby the first 11 residues correspond to the cell-membrane transduction domain of the human immunodeficiency virus type 1 (HIV-1) Tat protein and the last 9 residues correspond to the last 9 amino acids of the C-terminus of human TRPM7 (accession Q96QT4). (A) Neuronal survival at 20 h in the indicated concentrations of Tat-9cTRPM7 in the absence of excitotoxic challenge. (B) Neuronal survival 20 h after challenging the cultures for 1 h with the indicated concentration of NMDA. Tat-9cTRPM7 was applied immediately after the NMDA challenge.

No end group written: not given here.

In the case of YGRKKRRQRRRSTNSVRLML [Tat-9cTRPM7], the Neuronal survival result was “enhanced survival”.
